The test system of experiment [1] is human liver cancer cell SMMC-7721. In words: MTT anticancer assay, SMMC-7721. Format: cell-based. The following applies: 48 h exposure, mean ± SD. As for the experimental part:
(§1) The MTT was purchased from Sigma. Cell Cycle Analysis Kit and Apoptosis Analysis Kit were purchased from Bestbio (China). Mitochondrial membrane potential assay kit with JC-1 was purchased from Beyotime (China). All the materials were used as received without further purification unless noted specifically. The cell culture was maintained on DMEM medium (Hyclone, US) supplemented with 10% fetal bovine serum (Sijiqing, China), 100 U/mL penicillin and 100 µg/mL streptomycin in 25-cm^2 culture flasks at 37 °C humidified atmosphere with 5% CO2. Drugs were dissolved in DMSO and filtered through 0.22-µm pore-size filter units before addition to cell line appropriate media. When tumor cells were grown to log phase, diluting to 5 × 10^4 cells mL^−1 with the complete medium, 100 µL of the obtained cell suspension was added to each well of 96-well culture plates. The subsequent incubation was performed at 37 °C, 5% CO2 atmosphere for 48 h before subjecting to anti-proliferation assessment. After 48-h exposure period, 20 µL of PBS containing 5 mg·mL^−1 of MTT was added to each well. After 4 h, the medium was replaced by 150 µL DMSO to dissolve the purple formazan crystals produced. The absorbance at 492 nm of each well was measured on an ELISA plate reader. The data represented the mean of three experiments in triplicate and were expressed as means ± SD. The IC50 value was defined as the concentration at which 50% of the cells could survive. The following human tumor cell lines were used in the assay: human gastric cancer cells SGC-7901, human liver cancer cell SMMC-7721 and HepG2, human cervical cancer cell Hela and human glioma cell U87.

In experiment [2] the test system is human glioma cell U87. In words: MTT anticancer assay, U87. Format: cell-based. The following applies: 48 h exposure, mean ± SD, dash = footnote d 'None'. As for the experimental part:
as §1

These results are taken from article PMC6104605, “Discovery of new chromen-4-one derivatives as telomerase inhibitors through regulating expression of dyskerin” (Journal of Enzyme Inhibition and Medicinal Chemistry, 2018).

On to `COc1cc(OC)c2c(=O)c(OCCCCN3CCN(C(=O)c4ccncc4)CC3)c(-c3cc(OC)c(OC)c(OC)c3)oc2c1` [Compound 5i, 3-(4-(4-isonicotinoylpiperazin-1-yl)butoxy)-5,7-dimethoxy-2-(3,4,5-trimethoxyphenyl)-4H-chromen-4-one], for which the results for the IC50 in experiment [1] and in experiment [2] were 1330 ± 140 nM and 2500 ± 110 nM, respectively.
